Data from ChEMBL document CHEMBL1201862, “PubChem BioAssay data set” (2004).
One block for each compound: values may come before it. Active and inactive are the calls of the source.

Legend:
[1] = molecular target: T1, 1-phosphatidylinositol 4,5-bisphosphate phosphodiesterase beta-3 (Homo sapiens, UniProt Q01970); assay: Fluorescence-based biochemical high throughput dose response assay to identify inhibitors of phospholipase C isozymes (PLC-B3).
T1 sequence (Q01970 whole entry): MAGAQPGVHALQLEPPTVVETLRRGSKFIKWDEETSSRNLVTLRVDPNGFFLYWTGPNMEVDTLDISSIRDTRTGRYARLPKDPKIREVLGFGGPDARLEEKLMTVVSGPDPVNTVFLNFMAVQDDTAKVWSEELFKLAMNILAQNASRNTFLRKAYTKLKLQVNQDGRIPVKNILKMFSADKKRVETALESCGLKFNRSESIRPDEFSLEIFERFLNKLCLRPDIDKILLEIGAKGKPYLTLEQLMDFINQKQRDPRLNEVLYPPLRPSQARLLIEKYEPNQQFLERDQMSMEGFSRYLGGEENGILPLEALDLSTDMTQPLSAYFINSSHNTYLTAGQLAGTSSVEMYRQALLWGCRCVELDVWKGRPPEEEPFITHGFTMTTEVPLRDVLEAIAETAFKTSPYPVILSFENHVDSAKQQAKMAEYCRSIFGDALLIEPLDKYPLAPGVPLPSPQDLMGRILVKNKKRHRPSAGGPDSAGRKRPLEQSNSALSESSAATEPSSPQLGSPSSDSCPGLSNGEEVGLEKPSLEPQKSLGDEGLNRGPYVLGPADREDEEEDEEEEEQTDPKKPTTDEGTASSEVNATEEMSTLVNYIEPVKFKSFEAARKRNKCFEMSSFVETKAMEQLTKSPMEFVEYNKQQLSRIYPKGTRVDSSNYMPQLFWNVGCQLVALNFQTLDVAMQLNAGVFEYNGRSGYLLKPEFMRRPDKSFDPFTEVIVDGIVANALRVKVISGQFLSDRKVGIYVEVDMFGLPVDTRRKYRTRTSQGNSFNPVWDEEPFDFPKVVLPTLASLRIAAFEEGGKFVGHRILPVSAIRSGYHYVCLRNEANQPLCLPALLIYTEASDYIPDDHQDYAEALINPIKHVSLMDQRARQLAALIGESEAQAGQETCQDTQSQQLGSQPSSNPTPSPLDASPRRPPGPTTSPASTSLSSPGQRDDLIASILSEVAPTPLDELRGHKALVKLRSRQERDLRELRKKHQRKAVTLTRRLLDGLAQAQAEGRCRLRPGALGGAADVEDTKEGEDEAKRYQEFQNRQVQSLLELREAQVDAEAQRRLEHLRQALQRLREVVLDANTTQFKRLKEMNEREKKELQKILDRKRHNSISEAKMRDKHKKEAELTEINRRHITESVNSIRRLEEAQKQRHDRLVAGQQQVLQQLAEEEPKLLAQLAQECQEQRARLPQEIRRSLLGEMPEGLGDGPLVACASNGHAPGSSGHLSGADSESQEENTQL

[2] = molecular target: Dual specificity protein kinase CLK2 (Homo sapiens, UniProt P49760); format: functional
[3] = molecular target: Serine/threonine-protein kinase TBK1 (Homo sapiens, UniProt Q9UHD2); assay: Navigating the Kinome. Panel member name: TBK1; format: functional
[4] = molecular target: Calcium/calmodulin-dependent protein kinase type II subunit gamma (Homo sapiens, UniProt Q13555); format: functional
[5] = molecular target: Testis-specific serine/threonine-protein kinase 2 (Homo sapiens, UniProt Q96PF2); format: functional;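 note: part of the Navigating the Kinome panel, target entry STK22B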
[6] = molecular target: Serine/threonine-protein kinase Chk2 (Homo sapiens, UniProt O96017); format: functional;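 note: CHEK2 entry within a kinome-wide screening panel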
[7] = molecular target: Serine/threonine-protein kinase pim-1 (Homo sapiens, UniProt P11309); format: functional
[8] = molecular target: MAP kinase-activated protein kinase 5 (Homo sapiens, UniProt Q8IW41); format: functional;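 note: measured as one member of a kinome panel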
[9] = molecular target: MAP kinase-activated protein kinase 2 (Homo sapiens, UniProt P49137); format: functional;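 note: measured as one member of a kinome-wide kinase panel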
[10] = molecular target: Serine/threonine-protein kinase PAK 1 (Homo sapiens, UniProt Q13153); format: functional
[11] = molecular target: Fibroblast growth factor receptor 1 (Homo sapiens, UniProt P11362); format: functional
[12] = molecular target: Casein kinase I isoform gamma-1 (Homo sapiens, UniProt Q9HCP0); format: functional;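 note: measured as the CSNK1G1 member of a kinome profiling panel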
[13] = molecular target: Tyrosine-protein kinase ITK/TSK (Homo sapiens, UniProt Q08881); format: functional;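 note: affinity for ITK measured as one member of a broad kinase panel profiling binding across the kinome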
[14] = molecular target: Serine/threonine-protein kinase TAO1 (Homo sapiens, UniProt Q7L7X3); format: functional
[15] = molecular target: Testis-specific serine/threonine-protein kinase 1 (Homo sapiens, UniProt Q9BXA7); format: functional
[16] = molecular target: Homeodomain-interacting protein kinase 2 (Homo sapiens, UniProt Q9H2X6); format: functional;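 note: measured within a kinome-wide kinase profiling panel, HIPK2 being one panel member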
[17] = molecular target: Proto-oncogene tyrosine-protein kinase Src (Homo sapiens, UniProt P12931); format: functional;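 note: SRC entry within a kinome-wide kinase profiling panel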
[18] = molecular target: MAP kinase-activated protein kinase 3 (Homo sapiens, UniProt Q16644); format: functional;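 note: value comes from a kinome-wide profiling panel in which MAPKAPK3 is one of the panel members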
[19] = molecular target: Serine/threonine-protein kinase Chk1 (Homo sapiens, UniProt O14757); format: functional;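 note: measured as one member of a kinome-wide kinase profiling panel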
[20] = molecular target: Protein kinase C iota type (Homo sapiens, UniProt P41743); format: functional;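 note: measured within a kinome-wide kinase panel, PRKCI as panel member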
[21] = molecular target: Serine/threonine-protein kinase Nek2 (Homo sapiens, UniProt P51955); format: functional
[22] = molecular target: Cyclin-dependent kinase 8 (Homo sapiens, UniProt P49336); assay: Navigating the Kinome. Panel member name: CDK8; format: functional
[23] = molecular target: STE20-like serine/threonine-protein kinase (Homo sapiens, UniProt Q9H2G2); format: functional
[24] = molecular target: Fibroblast growth factor receptor 3 (Homo sapiens, UniProt P22607); format: functional
[25] = molecular target: Cyclin-dependent kinase 9 (Homo sapiens, UniProt P50750); format: functional;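 note: value from the CDK9 entry of a kinome-spanning kinase panel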
[26] = molecular target: cAMP-dependent protein kinase catalytic subunit alpha (Homo sapiens, UniProt P17612); format: functional
[27] = molecular target: Dual specificity protein kinase CLK4 (Homo sapiens, UniProt Q9HAZ1); format: functional
[28] = molecular target: Leukocyte tyrosine kinase receptor (Homo sapiens, UniProt P29376); assay: Navigating the Kinome. Panel member name: LTK; format: functional
[29] = molecular target: Tyrosine-protein kinase FRK (Homo sapiens, UniProt P42685); format: functional;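 note: FRK tested as one member of a kinome panel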

Sequence of Testis-specific serine/threonine-protein kinase 2 (Q96PF2 whole entry): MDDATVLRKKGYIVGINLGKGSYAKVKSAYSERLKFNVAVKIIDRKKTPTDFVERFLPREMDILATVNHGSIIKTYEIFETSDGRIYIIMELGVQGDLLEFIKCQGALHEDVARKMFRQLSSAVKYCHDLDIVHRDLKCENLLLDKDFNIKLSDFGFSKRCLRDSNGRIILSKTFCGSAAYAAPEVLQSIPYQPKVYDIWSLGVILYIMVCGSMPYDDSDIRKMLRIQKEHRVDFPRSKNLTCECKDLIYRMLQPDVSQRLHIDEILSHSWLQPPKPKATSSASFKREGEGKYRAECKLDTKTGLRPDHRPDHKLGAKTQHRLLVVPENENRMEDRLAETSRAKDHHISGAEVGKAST
Sequence of Serine/threonine-protein kinase PAK 1 (Q13153 whole entry): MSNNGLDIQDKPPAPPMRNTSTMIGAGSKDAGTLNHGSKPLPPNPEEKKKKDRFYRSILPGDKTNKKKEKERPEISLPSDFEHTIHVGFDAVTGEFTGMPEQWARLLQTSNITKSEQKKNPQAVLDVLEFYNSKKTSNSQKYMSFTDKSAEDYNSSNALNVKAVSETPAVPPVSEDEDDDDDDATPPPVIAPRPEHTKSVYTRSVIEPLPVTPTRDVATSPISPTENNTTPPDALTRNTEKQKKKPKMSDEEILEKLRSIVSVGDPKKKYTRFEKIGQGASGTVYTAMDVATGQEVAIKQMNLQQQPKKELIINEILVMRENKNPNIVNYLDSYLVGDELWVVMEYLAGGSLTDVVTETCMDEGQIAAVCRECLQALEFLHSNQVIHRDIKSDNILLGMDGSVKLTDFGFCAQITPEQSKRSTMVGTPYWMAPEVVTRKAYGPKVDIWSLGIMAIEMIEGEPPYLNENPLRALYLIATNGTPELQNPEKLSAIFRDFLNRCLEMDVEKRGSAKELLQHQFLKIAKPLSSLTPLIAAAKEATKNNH
Sequence of Serine/threonine-protein kinase Nek2 (P51955 whole entry): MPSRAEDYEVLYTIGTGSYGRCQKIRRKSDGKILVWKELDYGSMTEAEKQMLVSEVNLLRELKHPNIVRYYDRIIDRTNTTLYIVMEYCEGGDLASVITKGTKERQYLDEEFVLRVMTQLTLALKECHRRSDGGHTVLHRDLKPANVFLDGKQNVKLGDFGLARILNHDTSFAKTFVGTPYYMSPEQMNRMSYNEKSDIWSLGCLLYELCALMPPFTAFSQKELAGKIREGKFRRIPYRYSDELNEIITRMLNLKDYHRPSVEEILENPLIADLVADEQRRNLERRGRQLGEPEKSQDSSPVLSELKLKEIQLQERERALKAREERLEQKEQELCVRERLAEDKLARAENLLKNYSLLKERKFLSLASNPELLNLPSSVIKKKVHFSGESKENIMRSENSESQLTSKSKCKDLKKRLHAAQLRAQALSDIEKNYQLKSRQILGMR
Sequence of MAP kinase-activated protein kinase 2 (P49137 whole entry): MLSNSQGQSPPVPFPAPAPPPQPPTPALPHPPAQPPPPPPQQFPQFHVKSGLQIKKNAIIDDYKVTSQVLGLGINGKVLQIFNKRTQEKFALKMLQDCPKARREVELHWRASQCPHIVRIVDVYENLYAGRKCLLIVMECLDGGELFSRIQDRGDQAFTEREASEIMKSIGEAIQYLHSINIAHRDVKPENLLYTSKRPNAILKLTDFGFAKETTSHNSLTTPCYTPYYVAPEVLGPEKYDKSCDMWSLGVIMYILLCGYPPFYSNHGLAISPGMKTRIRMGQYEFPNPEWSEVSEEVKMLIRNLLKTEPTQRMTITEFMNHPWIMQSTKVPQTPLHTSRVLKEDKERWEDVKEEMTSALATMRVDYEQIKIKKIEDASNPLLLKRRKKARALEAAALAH
Sequence of STE20-like serine/threonine-protein kinase (Q9H2G2 whole entry): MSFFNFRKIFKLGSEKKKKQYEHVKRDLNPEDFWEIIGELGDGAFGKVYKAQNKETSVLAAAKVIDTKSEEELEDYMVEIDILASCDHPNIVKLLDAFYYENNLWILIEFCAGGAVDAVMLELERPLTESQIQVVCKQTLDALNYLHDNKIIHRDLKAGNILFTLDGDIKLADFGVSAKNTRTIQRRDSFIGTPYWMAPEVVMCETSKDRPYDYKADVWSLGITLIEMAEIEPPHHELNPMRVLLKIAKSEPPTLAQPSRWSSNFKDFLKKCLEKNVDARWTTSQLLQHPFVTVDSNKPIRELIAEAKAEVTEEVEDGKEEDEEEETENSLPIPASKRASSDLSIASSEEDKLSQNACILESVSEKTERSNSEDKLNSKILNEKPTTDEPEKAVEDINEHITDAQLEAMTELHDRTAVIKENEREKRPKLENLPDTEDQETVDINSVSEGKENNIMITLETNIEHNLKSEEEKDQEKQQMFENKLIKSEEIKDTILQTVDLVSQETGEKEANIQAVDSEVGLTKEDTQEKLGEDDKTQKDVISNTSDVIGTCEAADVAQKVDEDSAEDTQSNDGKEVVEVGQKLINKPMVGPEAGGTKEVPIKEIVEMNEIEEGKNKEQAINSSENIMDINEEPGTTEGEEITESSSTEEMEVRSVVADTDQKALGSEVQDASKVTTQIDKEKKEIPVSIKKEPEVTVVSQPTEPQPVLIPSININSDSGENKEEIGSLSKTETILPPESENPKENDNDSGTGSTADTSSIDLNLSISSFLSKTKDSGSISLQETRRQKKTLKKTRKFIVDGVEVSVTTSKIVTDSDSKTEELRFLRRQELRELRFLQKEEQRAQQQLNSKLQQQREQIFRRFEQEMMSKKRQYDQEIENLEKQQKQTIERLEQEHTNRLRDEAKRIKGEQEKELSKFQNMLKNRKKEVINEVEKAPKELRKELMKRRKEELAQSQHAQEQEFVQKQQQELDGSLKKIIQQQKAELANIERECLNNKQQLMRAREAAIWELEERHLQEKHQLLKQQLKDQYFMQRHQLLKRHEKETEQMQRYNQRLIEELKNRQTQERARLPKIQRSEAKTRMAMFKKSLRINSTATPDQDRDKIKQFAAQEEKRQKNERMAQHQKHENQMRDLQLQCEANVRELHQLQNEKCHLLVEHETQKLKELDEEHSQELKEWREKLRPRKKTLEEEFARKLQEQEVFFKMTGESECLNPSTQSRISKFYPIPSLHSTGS
Sequence of Protein kinase C iota type (P41743 whole entry): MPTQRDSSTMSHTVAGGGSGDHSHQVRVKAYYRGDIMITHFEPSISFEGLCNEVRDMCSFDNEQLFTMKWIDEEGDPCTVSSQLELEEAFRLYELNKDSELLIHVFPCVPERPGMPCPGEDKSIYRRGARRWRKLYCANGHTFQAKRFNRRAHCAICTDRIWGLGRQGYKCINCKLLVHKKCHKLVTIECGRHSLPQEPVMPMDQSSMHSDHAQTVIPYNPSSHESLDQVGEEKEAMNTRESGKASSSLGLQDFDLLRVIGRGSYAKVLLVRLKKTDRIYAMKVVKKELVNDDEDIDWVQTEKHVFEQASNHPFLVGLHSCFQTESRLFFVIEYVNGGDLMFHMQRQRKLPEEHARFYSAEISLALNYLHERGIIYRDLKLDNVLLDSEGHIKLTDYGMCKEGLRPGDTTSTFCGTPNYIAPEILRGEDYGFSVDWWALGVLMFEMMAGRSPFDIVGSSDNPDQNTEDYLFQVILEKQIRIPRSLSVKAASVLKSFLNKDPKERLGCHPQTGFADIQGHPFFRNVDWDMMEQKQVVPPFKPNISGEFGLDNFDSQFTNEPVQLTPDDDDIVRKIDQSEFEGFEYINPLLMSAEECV
Sequence of MAP kinase-activated protein kinase 5 (Q8IW41 whole entry): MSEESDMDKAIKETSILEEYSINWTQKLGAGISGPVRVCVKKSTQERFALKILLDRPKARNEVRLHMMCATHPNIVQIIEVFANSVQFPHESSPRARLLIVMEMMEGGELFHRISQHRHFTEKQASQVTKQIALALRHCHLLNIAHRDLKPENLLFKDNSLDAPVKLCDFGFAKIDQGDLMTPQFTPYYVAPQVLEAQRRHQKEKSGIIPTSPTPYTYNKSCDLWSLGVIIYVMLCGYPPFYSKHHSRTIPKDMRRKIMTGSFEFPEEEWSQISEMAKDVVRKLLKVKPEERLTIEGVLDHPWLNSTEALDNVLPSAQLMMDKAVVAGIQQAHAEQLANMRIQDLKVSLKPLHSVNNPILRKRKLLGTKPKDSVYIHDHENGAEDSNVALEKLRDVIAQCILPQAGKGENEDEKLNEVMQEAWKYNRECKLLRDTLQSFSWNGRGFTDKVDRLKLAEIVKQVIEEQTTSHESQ
Sequence of Fibroblast growth factor receptor 1 (P11362 whole entry, canonical isoform): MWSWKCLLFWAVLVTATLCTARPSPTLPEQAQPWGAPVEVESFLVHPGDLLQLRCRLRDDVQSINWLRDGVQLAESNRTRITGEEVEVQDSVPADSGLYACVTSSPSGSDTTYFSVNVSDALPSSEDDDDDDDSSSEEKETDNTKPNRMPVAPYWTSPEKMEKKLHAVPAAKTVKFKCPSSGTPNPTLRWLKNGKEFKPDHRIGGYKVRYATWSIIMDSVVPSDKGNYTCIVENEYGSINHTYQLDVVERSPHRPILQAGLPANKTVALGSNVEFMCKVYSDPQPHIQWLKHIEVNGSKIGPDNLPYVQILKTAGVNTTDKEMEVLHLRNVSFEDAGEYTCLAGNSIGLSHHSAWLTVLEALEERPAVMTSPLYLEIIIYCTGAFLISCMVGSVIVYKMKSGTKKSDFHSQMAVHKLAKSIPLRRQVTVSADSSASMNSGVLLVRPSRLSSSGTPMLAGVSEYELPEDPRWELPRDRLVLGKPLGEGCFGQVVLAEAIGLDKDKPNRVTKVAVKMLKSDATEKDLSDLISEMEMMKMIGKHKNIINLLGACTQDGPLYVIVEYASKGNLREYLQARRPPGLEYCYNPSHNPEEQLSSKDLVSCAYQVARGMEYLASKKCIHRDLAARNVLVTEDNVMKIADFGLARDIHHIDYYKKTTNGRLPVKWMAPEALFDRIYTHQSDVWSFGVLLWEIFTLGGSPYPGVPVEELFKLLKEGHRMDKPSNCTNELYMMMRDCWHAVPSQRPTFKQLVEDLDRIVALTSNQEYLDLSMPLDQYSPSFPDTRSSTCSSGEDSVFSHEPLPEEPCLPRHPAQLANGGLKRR

SMILES: Cc1ccc(/C=C2/C(=O)c3ccc(C(=O)O)cc3C2=O)o1
- IC50 [1]: > 122000 nM (inactive)

- Ki [2]: > 3160 nM (inactive)
- Ki [3]: > 3160 nM (inactive)
- Ki [4]: 1580 nM (active)
- Ki [5]: > 1580 nM (inactive)
- Ki [6]: 316 nM (active)
- Ki [7]: > 3980 nM (inactive)
- Ki [8]: > 1580 nM (inactive)
- Ki [9]: 2510 nM (active)
- Ki [10]: 1580 nM (active)
- Ki [11]: > 3980 nM (inactive)
- Ki [12]: 2510 nM (active)
- Ki [13]: > 1580 nM (inactive)
- Ki [14]: > 6310 nM (inactive)
- Ki [15]: 251 nM (active)
- Ki [16]: 631 nM (active)
- Ki [17]: > 2000 nM (inactive)
- Ki [18]: > 10000 nM (inactive)
- Ki [19]: 1000 nM (active)
- Ki [20]: 1000 nM (active)
- Ki [21]: 6310 nM (active)
- Ki [22]: 3160 nM (active)
- Ki [23]: 501 nM (active)
- Ki [24]: > 2000 nM (inactive)
- Ki [25]: > 3980 nM (inactive)
- Ki [26]: 398 nM (active)
- Ki [27]: 158 nM (active)
- Ki [28]: > 2510 nM (inactive)
- Ki [29]: > 2510 nM (inactive)
SMILES: Clc1cc(NC2CCCCC2)nc(-c2c[nH]c3ncccc23)n1
